The text below walks through data of patent publication EP0363041A1 (priority 1988, dated 1990).

Test systems include MO-5; MO-4; MO-6; MO-3; MO-2.
Type in all cases: binding, mouse
Assay [1] deals with "antibody carrier" (monoclonal antibody of MO-3 strain). As to the kind of experiment: Latex agglutination assay: competition with "normorphine carrier" for "antibody carrier".

Values joined by “and” are separate entries in the source; they are usually repeats but may differ in a detail not shown here. Equal values may be shown once. Read-outs that look alike come from different tables or passages of the source.

For the compound `COC(=O)[C@H]1[C@@H](OC(=O)c2ccccc2)C[C@@H]2CC[C@H]1N2C` [Cocaine, cocaine], the “reactivity ratio with morphine, MO-5” value in the assay with MO-5 is given as under 0.001. Moreover, the “reactivity ratio with morphine, MO-4” value in the assay on MO-4 is under 0.001. Moreover, the “reactivity ratio with morphine, MO-6” value in the assay with MO-6 is recorded as under 0.1. Also, in the assay on MO-3, the “reactivity ratio with morphine, MO-3” value is given as under 0.001. Also, the “time at which polystyrene latex particles were observed to be agglutinated” value in assay [1] is 16 s and 13 s. Further, the “reactivity ratio with morphine, MO-2” value with MO-2 is given as under 1.0.
For the compound `COc1ccc2c3c1O[C@H]1[C@@H](O)C=C[C@H]4[C@@H](C2)N(C)CC[C@@]341` [Codeine, codeine], the “reactivity ratio with morphine, MO-5” value in the assay on MO-5 is under 0.1. Besides, the “reactivity ratio with morphine, MO-4” value in the assay with MO-4 is under 0.1. For the same compound, the “reactivity ratio with morphine, MO-6” value in the assay with MO-6 is on record as under 0.1. In addition, the “reactivity ratio with morphine, MO-3” value with MO-3 is on record as under 0.1. In addition, the “reactivity ratio with morphine, MO-2” value in the assay on MO-2 is given as under 1.0.
Take `CCOc1ccc2c3c1O[C@H]1[C@@H](O)C=C[C@H]4[C@@H](C2)N(C)CC[C@@]341` [Ethylmorphine, ethylmorphine]: the “reactivity ratio with morphine, MO-5” value in the assay with MO-5 was under 0.01. The “reactivity ratio with morphine, MO-4” value in the assay with MO-4 is recorded as under 0.01. The “reactivity ratio with morphine, MO-6” value in the assay on MO-6 is reported as under 0.1. The “reactivity ratio with morphine, MO-3” value with MO-3 was under 0.01. The “time at which polystyrene latex particles were observed to be agglutinated” value in assay [1] (0.3 ppm in urine of healthy men, normorphine carrier of Example 5, 0 ppm gives 16 seconds) amounted to 16 s; in assay [1] (0.3 ppm in urine of healthy men, normorphine carrier of Example 6, 0 ppm gives 13 seconds), 13 s. In addition, the “reactivity ratio with morphine, MO-2” value in the assay on MO-2 was under 1.0.
As for `CN1CC[C@]23c4c5ccc(O[C@@H]6O[C@H](C(=O)O)[C@@H](O)[C@H](O)[C@H]6O)c4O[C@H]2[C@@H](O)C=C[C@H]3[C@H]1C5` [M - 3 - G, morphine-3-glucronide], in the assay on MO-5, the “reactivity ratio with morphine, MO-5” value stood at 0.5. Moreover, the “reactivity ratio with morphine, MO-4” value in the assay with MO-4 is 0.2. Besides, in the assay on MO-6, the “reactivity ratio with morphine, MO-6” value worked out at 0.3. Further, the “reactivity ratio with morphine, MO-3” value in the assay with MO-3 amounted to 0.1. Moreover, the “reactivity ratio with morphine, MO-2” value in the assay with MO-2 was found to be 2.0.
For `CN1CC[C@]23c4c5ccc(O)c4O[C@H]2[C@@H](O[C@@H]2O[C@H](C(=O)O)[C@@H](O)[C@H](O)[C@H]2O)C=C[C@H]3[C@H]1C5` [M - 6 - G, morphine-6-glucronide] the same measures were 0.9, 0.9, 1.0, 0.6 and 440.
The corresponding values for `CCC(=O)C(CC(C)N(C)C)(c1ccccc1)c1ccccc1` (centres unmarked) [Methadone, methadone] are under 0.001, under 0.001, under 0.1, under 0.001 and under 1.0.
The corresponding values for `CN1CC[C@]23c4c5ccc(O)c4O[C@H]2[C@@H](O)C=C[C@H]3[C@H]1C5` [Morphine, morphine] are 100, 100, 100, 100 and 100.
